Data reported in US5063224A, “R-cefuroxime axetil” (priority 1990, dated 1991).
In brackets after ≈: the same amount, converted by molar mass.

Experiments:
[1] = oral administration; cited from earlier work
[2] = Microbiological assay of biological potency (Example 2 product); conditions: product with 85% by weight R- and 15% S-cefuroxime axetil
[3] = test system: esterase enzymes in blood serum; assay: Hydrolysis by esterase enzymes in dog blood serum (Example 5); assay type: in vitro ADME
Protocol: The following study was conducted to establish that S-cefuroxime axetil is hydrolyzed to cefuroxime acid much more rapidly by esterase enzymes in blood serum than the R-cefuroxime axetil of this invention.
Blood serum was obtained from an 11.5 kg male dog two days prior to sacrifice. The whole blood was centrifuged for fifteen minutes at 3500 rpm and 4° C. The serum thus collected was diluted with ten parts Sorenson's phosphate buffer pH 7.4.
A solution was prepared by dissolving 0.29 mg of R-cefuroxime axetil in 50 ml of Sorenson's phosphate buffer pH 7.4. Another solution was prepared by dissolving 0.26 mg of S-cefuroxime acetil in 50 ml of Sorenson's phosphate buffer pH 7.4.
Triplicate test tubes containing 2.75 ml of the R-cefuroxime axetil solution, and triplicate tubes containing 2.75 ml of the S-cefuroxime axetil solution, were each heated to 37° C. and diluted with 0.25 ml of the serum preparation from above. Aliquot portions (200 μl each) from each tube were drawn at thirty minute intervals, diluted with 100 μl of 10% aqueous trichloracetic acid, and 100 μl of acetonitrile. The samples were centrifuged at 3000 rpm for five minutes to precipitate the proteins, and then transferred to autosampler tubes for determination of cefuroxime free acid content. Analysis was conducted using a Beckman 344 gradient high performance liquid chromatography column packed with zorbox C18 reverse phase, with an eluant comprised of 40 parts methanol and 60 parts water. Standard integration of HPLC curves were carried out to convert the area to a mg/ml equivalent.

physchem = assay type: physicochemical; conditions: organic solvent or mixture
Protocol: The substantially pure R-cefuroxime axetil of this invention is prepared by selectively solubilizing the R-isomer in a solvent in which the S-isomer is only minimally soluble relative to the R-isomer. Solvents commonly employed are those in which the R-isomer is about six times more soluble in a given volume than the S-isomer. […] Generally, a mixture of R and S-cefuroxime axetil, prepared as described in GB 2,145,409A, and containing the R and S-isomers, is added to a solvent to form a slurry. The best results are obtained employing a solvent that provides sufficient solubility to maintain the desired volume at a minimum. Preferred solvents include alcohols such as methanol and ethanol. […] In isopropanol at 25° C., the R-isomer is 1.84 mg/ml, and the S-isomer is 0.44 mg/ml. In n-butanol at 25° C., the R-isomer is 1.0 mg/ml and the S-isomer is 0.3 mg/ml. In ethyl acetate at 25° C., the R-isomer is 13.42 mg/ml, and the S-isomer is 10.0 mg/ml.

[4] = Hydrolysis in dog gut cell (intestine) preparation (Example 6); assay type: in vitro ADME
Protocol: About 18 inches of intestine was removed from a 13 month old male dog weighing 11.5 kg. The intestine section was washed several times with Sorenson's solution, and then sliced open lengthwise. The intestine cells were collected by scraping the inner surface of the intestine with a glass microscope slide, and provided 6.10 g of cell tissue. The cell tissue was placed in 30.5 ml of Sorenson's pH 7.5 phosphate buffer. The mixture was homogenized for 30 seconds with a Tek-Mar tissuemizer. The resulting suspension was centrifuged at 4° C. at 3500 rpm for 15 minutes.
Following the general procedure of Example 2, 0.277 mg of R-cefuroxime axetil was dissolved in 50 ml of Sorenson's pH 7.4 buffer, and 0.263 mg of S-cefuroxime axetil was dissolved in 50 ml of Sorenson's pH 7.4 buffer.
Triplicate tubes of 2.75 ml of the R-cefuroxime axetil solution, and triplicate tubes of the S-cefuroxime axetil solution, were allowed to equilibrate to 37° C., and then 0.25 ml of the intestine mixture from above was added to each tube. Aliquot samples were withdrawn every 30 minutes for two hours, and each 200 μl of 10% aqueous trichloroacetic acid and 100 μl of acetonitrile. […] The assays were analyzed for unchanged R- or S-cefuroxime axetil and afforded the following results.

half-life (in words) [3]	solubility (physchem; ethanol)	solubility (physchem; ethyl acetate)	solubility (physchem; isopropanol)	solubility (physchem; methanol)	solubility (physchem; n-butanol)	hydrolysis rate relative to R-cefuroxime axetil in blood serum [3]	hydrolysis in blood serum (in words) ([3]; vs R-cefuroxime axetil)	hydrolysis rate relative to R-cefuroxime axetil in intestinal preparations [4]	hydrolysis in the dog gut (in words) ([4]; vs R-cefuroxime axetil)	SMILES	bioavailability of the cefuroxime antibiotic [1]	biological potency [2]
										CO/N=C(\C(=O)N[C@@H]1C(=O)N2C(C(=O)OC(C)OC(C)=O)=C(COC(N)=O)CS[C@H]12)c1ccco1 (mixture of isomers) [R,S-mixture of cefuroxime axetil, 1-acetoxyethyl ester of cefuroxime]	about fifty	
longer half-life	12000 µg/mL (≈ 23.5 mM)	13400 µg/mL (≈ 26.3 mM)	1840 µg/mL (≈ 3.6 mM)	391000 µg/mL (≈ 767 mM)	1000 µg/mL (≈ 1.96 mM)					CO/N=C(\C(=O)N[C@@H]1C(=O)N2C(C(=O)O[C@H](C)OC(C)=O)=C(COC(N)=O)CS[C@H]12)c1ccco1 [R-cefuroxime axetil]		99%
	~2980 µg/mL (≈ 5.84 mM)	10000 µg/mL (≈ 19.6 mM)	440 µg/mL (≈ 0.862 mM)	90000 µg/mL (≈ 176 mM)	300 µg/mL (≈ 0.588 mM)	about 25 fold	hydrolyzed much more rapidly	about 3 fold	hydrolyzed much more rapidly	CO/N=C(\C(=O)N[C@@H]1C(=O)N2C(C(=O)O[C@@H](C)OC(C)=O)=C(COC(N)=O)CS[C@H]12)c1ccco1 [S-cefuroxime axetil, reference compound]		
